Test results reported in publication PMC6946680, “Modulation of brain cation-Cl^− cotransport via the SPAK kinase inhibitor ZT-1a” (Nature Communications, 2020).
Several values for one entry are separate records, joined by “and”; a condition that tells them apart may be missing. Equal entries are not always repeated.

How the values were obtained:
KCC3 pThr991 = assay: Immunoblot of KCC site 1 phosphorylation (KCC3 Thr991) in HEK-293 cells transfected with FLAG-KCC3; format: cell-based, human
NKCC1 pThr203/207/212 = assay: Immunoblot of NKCC1 p-Thr203/Thr207/Thr212 in HEK-293 cells; format: cell-based, human
Description: (§1) Band intensities were quantitated with ImageJ software. ***p < 0.001; **p < 0.01; *p < 0.05; ns, nonsignificant [by one-way ANOVA with post hoc testing (n = 6, error bars represent the mean ± SEM)].
(§2) Thirty-six hours post transfection, cells were stimulated with either control isotonic or hypotonic medium for a period of 30 min. […] Protein concentrations were determined using the Bradford method. Cells were treated with the indicated concentrations of the SPAK/OSR1 inhibitors.

KCC3 pThr1048 = assay: Immunoblot of KCC site 2 phosphorylation (KCC3 Thr1048) in HEK-293 cells transfected with FLAG-KCC3; format: cell-based, human
SPAK pSer373 = assay: Immunoblot of SPAK/OSR1 p-Ser373/Ser325 in HEK-293 cells; format: cell-based, human
Description: as §1, §2

GST–[T233E]SPAK kinase = biological target: T1, GST–[T233E]SPAK kinase (Homo sapiens, UniProt Q9UEW8, T231E); assay: SPAK kinase assay with CATCHtide and IC50 determination; format: biochemical
T1 construct: made in house; host or cells: E. coli
Source text: II. Experimental procedures
1. Reagents and General methods
Tissue culture reagents were from Life Technologies. P81 phosphocellulose paper was from Whatman […]
and [γ-32P]-ATP was from Perkin Elmer. […] Protein G […]
sepharose was from Amersham. DNA constructs used for transfection were purified from Escherichia coli DH5α using Qiagen or Invitrogen plasmid Maxi kits according to the manufacturer's protocol. All DNA constructs were verified by DNA sequencing.
2. Plasmids, protein expression and purification
DNA clones were from the Division of Signal Transduction Therapy (University of Dundee). The SPAK proteins were expressed in E. Coli and purified as described previously 1.
3. SPAK kinase assays and IC50 determination
SPAK kinase assays employed CATCHtide (cation chloride co-transporter peptide substrate). Peptide kinase assays, performed in triplicate, were set up in a total volume of 50 μl containing 0.5 μg GST– […]
cpm/pmol) and the indicated concentrations of inhibitor dissolved in DMSO. After incubation for 30 min at 30°C, reactions were terminated by spotting 40 μl of the reaction mix onto P81 phosphocellulose paper and immersion in 50 mM phosphoric acid. The papers were washed extensively and incorporation of [γ-32P]ATP into CATCHtide was quantified by Cerenkov counting.
IC50 values were calculated with GraphPad Prism using non-linear regression analysis.
4. Fluorescence polarization […]
concentrations between 0.00001 to 1 mM. Data points are the means of three determinations, with error […]
A Supplemental Fig. 7 Effects of increasing concentrations of ZT-1a on SPAK activity in the absence […]
the absence or presence of five-fold molar excess of wild-type MO25α. b Kinetic data determined for B ZT-1a in the absence or presence of five-fold molar excess of wild-type MO25α. Data are means of […]
presence of wild-type MO25α.

[1] = Hypotonic low Cl, compound concentration 1 (unit not given)
[2] = Hypotonic low Cl, compound concentration 3 (unit not given)
[3] = Hypotonic low Cl, compound concentration 10 (unit not given)
[4] = Isotonic control, compound concentration 1 (unit not given)
[5] = Isotonic control, compound concentration 3 (unit not given)
[6] = Isotonic control, compound concentration 10 (unit not given)

Which “Site-1 phospho / KCC” value (KCC3 pThr991; [1]) does the source give for `Cc1cc(C(C#N)c2ccc(Cl)cc2)c(Cl)cc1NC(=O)c1cc(F)ccc1O` (stereo not shown) [ZT-1g] here?
The value was 1.44 and 1.512 and 1.37 and 1.612.

And the “Site-1 phospho / KCC” value (KCC3 pThr991; [2])?
Its value is 1.67 and 1.55 and 1.71 and 1.58.

And the “Site-1 phospho / KCC” value (KCC3 pThr991; [3])?
Its value is 1.28 and 1.109 and 1.16 and 1.25.

And the “Site-1 phospho / KCC” value (KCC3 pThr991; [4])?
The value was 1.31 and 1.461 and 1.597 and 1.37.

What about the “Site-1 phospho / KCC” value (KCC3 pThr991; [5]) of the same compound?
Its value is 1.16 and 1.27 and 1.05 and 1.23.

What about the “Site-1 phospho / KCC” value (KCC3 pThr991; [6]) of the same compound?
Its value is 0.79 and 0.93 and 0.85 and 0.712.

And the “pThrNKCC1 / NKCC1” value (NKCC1 pThr203/207/212; [1])?
Its value is 0.41 and 0.38 and 0.36 and 0.43.

What about the “pThrNKCC1 / NKCC1” value (NKCC1 pThr203/207/212; [2]) of the same compound?
Its value is 0.21 and 0.19 and 0.176 and 0.196.

What about the “pThrNKCC1 / NKCC1” value (NKCC1 pThr203/207/212; [3]) of the same compound?
Its value is 0.1 and 0.064 and 0.089 and 0.097.

And the “pThrNKCC1 / NKCC1” value (NKCC1 pThr203/207/212; [4])?
The value was 0.306 and 0.28 and 0.251 and 0.293.

What about the “pThrNKCC1 / NKCC1” value (NKCC1 pThr203/207/212; [5]) of the same compound?
Its value is 0.167 and 0.134 and 0.121 and 0.172.

And the “pThrNKCC1 / NKCC1” value (NKCC1 pThr203/207/212; [6])?
The value was 0.035 and 0.039 and 0.045 and 0.032.

What about the “Site-2 phospho / KCC” value (KCC3 pThr1048; [1]) of the same compound?
Its value is 0.321 and 0.39 and 0.36 and 0.315.

And the “Site-2 phospho / KCC” value (KCC3 pThr1048; [2])?
Its value is 0.263 and 0.275 and 0.22 and 0.253.

What about the “Site-2 phospho / KCC” value (KCC3 pThr1048; [3]) of the same compound?
The value was 0.1 and 0.116 and 0.092 and 0.107.

And the “Site-2 phospho / KCC” value (KCC3 pThr1048; [4])?
The value was 0.389 and 0.326 and 0.357 and 0.301.

And the “Site-2 phospho / KCC” value (KCC3 pThr1048; [5])?
The value was 0.233 and 0.197 and 0.175 and 0.227.

What about the “Site-2 phospho / KCC” value (KCC3 pThr1048; [6]) of the same compound?
The value was 0.104 and 0.076 and 0.11 and 0.095.

What about the “pSer373 / SPAK” value (SPAK pSer373; [1]) of the same compound?
The value was 0.101 and 0.097 and 0.112 and 0.0903.

What about the “pSer373 / SPAK” value (SPAK pSer373; [2]) of the same compound?
Its value is 0.058 and 0.071 and 0.066 and 0.078.

What about the “pSer373 / SPAK” value (SPAK pSer373; [3]) of the same compound?
Its value is 0.044 and 0.027 and 0.035 and 0.041.

What about the “pSer373 / SPAK” value (SPAK pSer373; [4]) of the same compound?
Its value is 0.034 and 0.041 and 0.029 and 0.046.

And the “pSer373 / SPAK” value (SPAK pSer373; [6])?
Its value is 0.017 and 0.015 and 0.013 and 0.016.

`CN[C@@H]1C[C@H]2O[C@@](C)([C@@H]1OC)n1c3ccccc3c3c4c(c5c6ccccc6n2c5c31)C(=O)NC4` [staurosporine, reference compound] was tested. Which “SPAK kinase activity signal (Fig S3 source data)” value (from here on “SPAK kinase activity signal”) (GST–[T233E]SPAK kinase; ATP 0.01 mM, inhibitor 1e-5 uM) did it give?
Its value is 880 and 902.

What about the “SPAK kinase activity signal” value (GST–[T233E]SPAK kinase; ATP 0.01 mM, inhibitor 0.0001 uM) of the same compound?
The value was 874.

And the “SPAK kinase activity signal” value (GST–[T233E]SPAK kinase; ATP 0.01 mM, inhibitor 0.001 uM)?
The value was 875.

What about the “SPAK kinase activity signal” value (GST–[T233E]SPAK kinase; ATP 0.01 mM, inhibitor 0.03 uM) of the same compound?
Its value is 535 and 689 and 604.

What about the “SPAK kinase activity signal” value (GST–[T233E]SPAK kinase; ATP 0.01 mM, inhibitor 0.1 uM) of the same compound?
The value was 405 and 495 and 442.

What about the “SPAK kinase activity signal” value (GST–[T233E]SPAK kinase; ATP 0.01 mM, inhibitor 0.3 uM) of the same compound?
The value was 385 and 459 and 417.

What about the “SPAK kinase activity signal” value (GST–[T233E]SPAK kinase; ATP 0.01 mM, inhibitor 1 uM) of the same compound?
Its value is 408 and 363.

What about the “SPAK kinase activity signal” value (GST–[T233E]SPAK kinase; ATP 0.01 mM, inhibitor 10 uM) of the same compound?
The value was 206 and 221.

And the “SPAK kinase activity signal” value (GST–[T233E]SPAK kinase; ATP 0.01 mM, inhibitor 100 uM)?
Its value is 109 and 126.

And the “SPAK kinase activity signal” value (GST–[T233E]SPAK kinase; ATP 0.01 mM, inhibitor 1000 uM)?
The value was 95 and 64 and 75.

What about the “SPAK kinase activity signal” value (GST–[T233E]SPAK kinase; ATP 0.1 mM, inhibitor 1e-5 uM) of the same compound?
The value was 880 and 897.

What about the “SPAK kinase activity signal” value (GST–[T233E]SPAK kinase; ATP 0.1 mM, inhibitor 0.0001 uM) of the same compound?
Its value is 874.

And the “SPAK kinase activity signal” value (GST–[T233E]SPAK kinase; ATP 0.1 mM, inhibitor 0.001 uM)?
The value was 875 and 869.

And the “SPAK kinase activity signal” value (GST–[T233E]SPAK kinase; ATP 0.1 mM, inhibitor 0.03 uM)?
The value was 715.

And the “SPAK kinase activity signal” value (GST–[T233E]SPAK kinase; ATP 0.1 mM, inhibitor 0.1 uM)?
Its value is 705 and 625 and 675.

What about the “SPAK kinase activity signal” value (GST–[T233E]SPAK kinase; ATP 0.1 mM, inhibitor 0.3 uM) of the same compound?
The value was 565 and 509 and 529.

What about the “SPAK kinase activity signal” value (GST–[T233E]SPAK kinase; ATP 0.1 mM, inhibitor 1 uM) of the same compound?
Its value is 453 and 458 and 431.

What about the “SPAK kinase activity signal” value (GST–[T233E]SPAK kinase; ATP 0.1 mM, inhibitor 3 uM) of the same compound?
Its value is 389 and 363.

What about the “SPAK kinase activity signal” value (GST–[T233E]SPAK kinase; ATP 0.1 mM, inhibitor 100 uM) of the same compound?
Its value is 112 and 127.

And the “SPAK kinase activity signal” value (GST–[T233E]SPAK kinase; ATP 0.1 mM, inhibitor 1000 uM)?
Its value is 114 and 95.

What about the “SPAK kinase activity signal” value (GST–[T233E]SPAK kinase; ATP 1 mM, inhibitor 1e-5 uM) of the same compound?
The value was 880.

What about the “SPAK kinase activity signal” value (GST–[T233E]SPAK kinase; ATP 1 mM, inhibitor 0.0001 uM) of the same compound?
The value was 874.

What about the “SPAK kinase activity signal” value (GST–[T233E]SPAK kinase; ATP 1 mM, inhibitor 0.001 uM) of the same compound?
Its value is 875.

And the “SPAK kinase activity signal” value (GST–[T233E]SPAK kinase; ATP 1 mM, inhibitor 0.3 uM)?
Its value is 714 and 703.

And the “SPAK kinase activity signal” value (GST–[T233E]SPAK kinase; ATP 1 mM, inhibitor 1 uM)?
Its value is 504 and 558 and 522.

What about the “SPAK kinase activity signal” value (GST–[T233E]SPAK kinase; ATP 1 mM, inhibitor 3 uM) of the same compound?
Its value is 489 and 412 and 459.

And the “SPAK kinase activity signal” value (GST–[T233E]SPAK kinase; ATP 1 mM, inhibitor 10 uM)?
Its value is 406 and 421 and 391.

What about the “SPAK kinase activity signal” value (GST–[T233E]SPAK kinase; ATP 1 mM, inhibitor 100 uM) of the same compound?
The value was 356.

What about the “SPAK kinase activity signal” value (GST–[T233E]SPAK kinase; ATP 1 mM, inhibitor 1000 uM) of the same compound?
Its value is 214 and 183.
